Among the data in patent US20250026762A1, “FUSED PYRAZOLE UREA ANALOGS AS GLUCOSYLCERAMIDE SYNTHASE INHIBITORS” (Merck Sharp & Dohme LLC, priority 2021, published 2025) are EC50 values, retold here.

In this test the target is glucosylceramide synthase (GCS) enzyme in Golgi preparations from human A375 malignant melanoma skin cells (Homo sapiens (Human), UniProt Q16739). Nature of the test: UDP-Glo glucosylceramide synthase biochemical assay. The following applies: 1.5 μg crude golgi preparation; C6 ceramide and UDP-glucose at 2×Km; 20 h incubation at room temperature; luminescence. The source says: UDP-Glo™ Glucosylceramide Synthase Biochemical Assay
Sequence of glucosylceramide synthase (GCS) enzyme in Golgi preparations from human A375 malignant melanoma skin cells (Q16739 whole entry): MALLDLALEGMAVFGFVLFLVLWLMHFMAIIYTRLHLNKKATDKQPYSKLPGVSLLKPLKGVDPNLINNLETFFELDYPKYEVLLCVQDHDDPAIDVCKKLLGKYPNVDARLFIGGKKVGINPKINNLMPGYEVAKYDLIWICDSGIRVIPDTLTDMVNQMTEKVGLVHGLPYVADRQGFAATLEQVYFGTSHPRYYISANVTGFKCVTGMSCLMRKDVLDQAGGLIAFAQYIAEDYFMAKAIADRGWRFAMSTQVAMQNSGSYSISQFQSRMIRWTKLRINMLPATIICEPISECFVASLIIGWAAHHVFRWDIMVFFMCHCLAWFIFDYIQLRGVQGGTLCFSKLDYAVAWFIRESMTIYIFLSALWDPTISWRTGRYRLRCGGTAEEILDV
A UDP-Glo™ glucosylceramide synthase biochemical assay was utilized to evaluate the effect of test compounds on the activity of endogenous levels of GCS enzyme contained within Golgi preparations isolated from human A375 malignant melanoma skin cells. The UDP-Glo™ glucosylceramide synthase assay uses UDP-Glucose as a nucleotide-glycosyl donor and ceramide as substrate acceptor molecules. In the reaction, glucosylceramide synthase (GCS) transfers glucose from UDP-Glucose to ceramide. Glucosylceramide and UDP are released as products.
Using Promega's UDP-Glo™ Glycosyltransferase assay kit (Promega Corporation, Madison, WI, USA (Promega)), GCS activity was indirectly measured by detecting the amount of UDP produced. An aliquot of GCS enzyme (1.5 μg crude golgi preparation, total protein) and titrated test compound were aliquoted to each well and incubated for 30 minutes at room temperature. Substrate mixture was prepared by mixing C6 ceramide (Avanti Polar Lipids, Alabaster, AL USA (Avanti)) (micelles prepared at 0.6 mM in 0.6 mM DOPC) and UDP-glucose (20 μM; Promega), at concentrations equivalent to 2×Km, in assay buffer (25 mM HEPES (pH 7.5), 50 mM KCl, 5 mM MgCl2). An equivalent volume of substrate mixture was then added to each well. Following a 20 h incubation at room temperature to allow for GCS turnover of substrate, an equal volume of UDP detection reagent (Promega) was added to each well and incubated for an additional 75 minutes at room temperature to simultaneously convert the accumulated UDP product into ATP and generate light in a luciferase reaction. The generated light was detected using a luminometer. […] luminescence values (RLUs) were normalized to mean “min” and “max” effects, as determined on each plate. “Min” was defined as the mean of the values of the wells treated with vehicle (DMSO) and which represent 0% inhibition; “max” was defined as the mean of the values of the wells treated with a reference inhibitor and which represent the 100% effect. Values for % Emax and EC50 were determined by best-fitting the normalized data to a curve in Activity Base along a four-parameter logistic nonlinear regression (4PL) model (based on the Levenberg-Marquardt algorithm and defined by the equation below): […]
where: n is 4PMin (bottom of the curve); m is 4PMax (top of the curve); i is IP (inflection point of curve); andp is slope. See Levenberg, K., “A Method for the Solution of Certain Problems in Least Squares”, Quart. Appl. Math. 2, (1944), pp 164-168 and Marquardt, D., “An Algorithm for Least Squares Estimation on Nonlinear Parameters”, SIAM J. Appl. Math. 11, (1963) pp 431-441.
In general, EC50 refers to the concentration at which the effect is half-maximal. Lower therefore signals greater potency. The compound `COc1ccc(F)c(-c2nn(C(=O)N3CCN4CCC3CC4)c3c2CCC3)c1` [Compound 44, 1,4-diazabicyclo[3.2.2]nonan-4-yl-[3-(2-fluoro-5-methoxy-phenyl)-5,6-dihydro-4H-cyclopenta[c]pyrazol-1-yl]methanone] displayed an EC50 of 1.7 nM.
As for `O=C(N1CCN2CCC1CC2)n1nc(C23CCCC2C3)c2c1CCC2` (single isomer, unassigned) [Compound 9, R or S-(3-(bicyclo[3.1.0]hexan-1-yl)-5,6-dihydrocyclopenta[c]pyrazol-1(4H)-yl)(1,4-diazabicyclo[3.2.2]nonan-4-yl)methanone], the midpoint of the response, the EC50, lay at 2.4 nM.
With `CC1(C)COc2c(-c3ccc(F)cc3)nn(C(=O)N3CCN4CCC3CC4)c21` [Compound 17, (1,4-diazabicyclo[3.2.2]nonan-4-yl)(3-(4-fluorophenyl)-6,6-dimethyl-5,6-dihydro-1H-furo[3,2-c]pyrazol-1-yl)methanone], a half-maximal response (EC50) required 10.1 nM. Compared with the last compound, the EC50 is about 4.2-fold higher.
Regarding `O=C(N1CCN2CCC1CC2)n1nc(-c2cc(F)c(F)c(F)c2)c2c1CCOC2` [Compound 46, (1,4-diazabicyclo[3.2.2]nonan-4-yl)(3-(3,4,5-trifluorophenyl)-6,7-dihydropyrano[4,3-c]pyrazol-1(4H)-yl)methanone], the response was half-maximal at 4.6 nM (EC50).
Regarding `O=C(N1CCN2CCC1CC2)n1nc(-c2ccc(F)cc2)c2c1CC(F)(F)C2` [Compound 20, (1,4-diazabicyclo[3.2.2]nonan-4-yl)(5,5-difluoro-3-(4-fluorophenyl)-5,6-dihydrocyclopenta[c]pyrazol-1(4H)-yl)methanone], the EC50 came to 4.7 nM.
Regarding `O=C(N1CCN2CCC1CC2)n1nc(-c2ccc(Cl)cn2)c2c1COCC2` [Compound 23, (1,4-diazabicyclo[3.2.2]nonan-4-yl)(3-(5-chloropyridin-2-yl)-4,7-dihydropyrano[3,4-c]pyrazol-1(5H)-yl)methanone], the EC50 was found to be 3.7 nM. The EC50 values of the last two compounds are within 1.5-fold of each other.
On to `O=C(N1CCN2CCC1CC2)n1nc(-c2ccc(F)cc2)c2c1C1CC1CC2` (single isomer, unassigned) [Compound 10], for which the EC50 was determined as 0.3 nM.
The figure for `COc1nccc(-c2nn(C(=O)N3CCN4CCC3CC4)c3c2CCOC3)c1Cl` [Compound 34, (1,4-diazabicyclo[3.2.2]nonan-4-yl)(3-(3-chloro-2-methoxypyridin-4-yl)-4,7-dihydropyrano[3,4-c]pyrazol-1(5H)-yl)methanone] is 15.3 nM; for `O=C(N1CCN2CCC1CC2)n1nc(-c2ccc(F)cc2)c2c1CC1CC21` (single isomer, unassigned) [Compound 15, (R,R) or (S,S)--(1,4-diazabicyclo[3.2.2]nonan-4-yl)(3-(4-fluorophenyl)-3b,4,4a,5-tetrahydro-1H-cyclopropa[3,4]cyclopenta[1,2-c]pyrazol-1-yl)methanone] it is 0.1 nM.
For `O=C(N1CCN2CCC1CC2)n1nc(C2=CCCC2)c2c1CCC2` [Compound 37, [3-(cyclopenten-1-yl)-5,6-dihydro-4H-cyclopenta[c]pyrazol-1-yl]-(1,4-diazabicyclo[3.2.2]nonan-4-yl)methanone] the value was 3.6 nM; for `COc1ccc(-c2nn(C(=O)N3CCN4CCC3CC4)c3c2CCOC3)cc1Cl` [Compound 3, 1,4-diazabicyclo[3.2.2]nonan-4-yl(3-(3-chloro-4-methoxyphenyl)-4,5-dihydropyrano[3,4-c]pyrazol-1(7H)-yl)methanone], 1.4 nM; for `O=C(N1CCN2CCC1CC2)n1nc(-c2ccc(F)c(Cl)c2)c2c1COC2` [Compound 50, (1,4-diazabicyclo[3.2.2]nonan-4-yl)(3-(3-chloro-4-fluorophenyl)-4,6-dihydro-1H-furo[3,4-c]pyrazol-1-yl)methanone], 14.9 nM.
Compound `COc1ncc(-c2nn(C(=O)N3CCN4CCC3CC4)c3c2CCOC3)cc1Cl` [Compound 32, (1,4-diazabicyclo[3.2.2]nonan-4-yl)(3-(5-chloro-6-methoxypyridin-3-yl)-4,7-dihydropyrano[3,4-c]pyrazol-1(5H)-yl)methanone] gave an EC50 of 7.6 nM.
The figure for `O=C(N1CCN2CCC1CC2)n1nc(-c2ccc(F)cc2)c2c1COCC2` [Compound 1, 1,4-diazabicyclo[3.2.2]nonan-4-yl(3-(4-fluorophenyl)-4,5-dihydropyrano[3,4-c]pyrazol-1(7H)-yl)methanone] is 5.1 nM; for `O=C(N1CCN2CCC1CC2)n1nc(-c2ccc(F)cc2)c2c1CCOC2` [Compound 13, 1,4-diazabicyclo[3.2.2]nonan-4-yl-[3-(4-fluorophenyl)-6,7-dihydro-4H-pyrano[4,3-c]pyrazol-1-yl]methanone] it is 4.1 nM; for `O=C(N1CCN2CCC1CC2)n1nc(N2CCC3(CC2)CC3)c2c1COCC2` [Compound 52, (3-(6-azaspiro[2.5]octan-6-yl)-4,7-dihydropyrano[3,4-c]pyrazol-1(5H)-yl)(1,4-diazabicyclo[3.2.2]nonan-4-yl)methanone] it is 18.3 nM.
For `Cc1cnn(-c2nn(C(=O)N3CCN4CCC3CC4)c3c2CCC3)c1` [Compound 57, (1,4-diazabicyclo[3.2.2]nonan-4-yl)(3-(4-methyl-1H-pyrazol-1-yl)-5,6-dihydrocyclopenta[c]pyrazol-1(4H)-yl)methanone] the value was 9.2 nM; for `COc1nccc(-c2nn(C(=O)N3CCN4CCC3CC4)c3c2CCC3)c1Cl` [Compound 40, [3-(3-chloro-2-methoxy-4-pyridyl)-5,6-dihydro-4H-cyclopenta[c]pyrazol-1-yl]-(1,4-diazabicyclo[3.2.2]nonan-4-yl)methanone], 1.2 nM; for `Cn1nc(C(F)(F)F)cc1-c1nn(C(=O)N2CCN3CCC2CC3)c2c1CCC2` [Compound 33, 1,4-diazabicyclo[3.2.2]nonan-4-yl-[3-[2-methyl-5-(trifluoromethyl)pyrazol-3-yl]-5,6-dihydro-4H-cyclopenta[c]pyrazol-1-yl]methanone], 5.9 nM.
The figure for `O=C(N1CCN2CCC1CC2)n1nc(-n2nc(C(F)(F)F)ccc2=O)c2c1CCOC2` [Compound 25, 2-(1-(1,4-diazabicyclo[3.2.2]nonane-4-carbonyl)-1,4,6,7-tetrahydropyrano[4,3-c]pyrazol-3-yl)-6-(trifluoromethyl)pyridazin-3(2H)-one] is 27 nM; for `O=C(N1CCN2CCC1CC2)n1nc(OC2CCCC2)c2c1CCC2` [Compound 26, (1,4-diazabicyclo[3.2.2]nonan-4-yl)(3-(cyclopentyloxy)-5,6-dihydrocyclopenta[c]pyrazol-1(4H)-yl)methanone] it is 23.3 nM; for `COc1ccc(-c2nn(C(=O)N3CCN4CCC3CC4)c3c2CCC3)cc1` [Compound 4, 1,4-diazabicyclo[3.2.2]nonan-4-yl-[3-(4-methoxyphenyl)-5,6-dihydro-4H-cyclopenta[c]pyrazol-1-yl]methanone] it is 0.2 nM.
`Cc1cccc(-c2nn(C(=O)N3CCN4CCC3CC4)c3c2COCC3)c1F` [Compound 39, (1,4-diazabicyclo[3.2.2]nonan-4-yl)(3-(2-fluoro-3-methylphenyl)-6,7-dihydropyrano[4,3-c]pyrazol-1(4H)-yl)methanone]: the EC50 amounted to 0.3 nM.
For `Cc1c(-c2ccc(F)cc2)nn(C(=O)N2CCN3CCC2CC3)c1C` [Compound 64, (1,4-diazabicyclo[3.2.2]nonan-4-yl)(3-(4-fluorophenyl)-4,5-dimethyl-1H-pyrazol-1-yl)methanone] the value was 8.8 nM.
